These results are taken from PubChem BioAssay AID1996.

What is called kinetic solubility is the concentration staying in solution when a stock, usually in DMSO, is diluted into the medium.

In brackets after ≈: the same amount, converted by molar mass.

For this data set the following is noted: buffer; pH 7.4; 200.0 µM.
`CC(=O)c1cc(C)ccc1OC(=O)CN1C(=O)c2ccccc2C1=O` displayed a kinetic solubility of 24.6 µg/mL (≈ 72.9 µM). As for `CCCn1c(SCC(=O)Nc2ccc(F)c(Cl)c2)nc(O)cc1=O`, the solubility (kinetic) was above 55.8 µg/mL. Molecule `CCNc1nc2c(c(=O)[nH]c(=O)n2C)n1CCCc1ccccc1` gave a solubility (kinetic) of 20.8 µg/mL (≈ 63.5 µM). In the case of `Cc1cccc(SCC(=O)Nc2ccccc2[N+](=O)[O-])c1` it was 3.7 µg/mL (≈ 12.2 µM); in that of `CCCCN(C)S(=O)(=O)c1cc2c3c(c1)CCC(=O)N3CCC2`, 48.6 µg/mL (≈ 144 µM); in that of `CO/N=C(/COc1ccc(F)cc1)c1ccc(OC)cc1`, below 0.6 µg/mL. Consider `COc1ccccc1C1C(C(C)=O)=C(O)C(=O)N1c1ccc(O)cc1` (stereo not given), for which the solubility (kinetic) is above 50.9 µg/mL. As for `O=C(CN1C(=O)COc2ccccc21)N1CCOCC1`, the solubility (kinetic) is above 41.4 µg/mL. `O=C(CC1OC(=O)c2ccccc21)Nc1cc(Cl)ccc1N1CCOCC1` (stereo not given) displayed a kinetic solubility of 5.8 µg/mL (≈ 15 µM).

`Br.CC1CN2C(c3ccc(Cl)cc3)=CSC2=N1` (stereo not given) came in with a kinetic solubility above 49.7 µg/mL. For `CC(C)OP(=O)(OC(C)C)C(NC(=O)c1ccccc1)C(N)=O` (stereo not given), the kinetic solubility was above 51.3 µg/mL. The value for `Cc1noc(-c2ccccc2)c1NC(=O)Nc1ccccc1` was above 44 µg/mL; that for `CC(=O)c1cccc(NC(=O)COc2ccc3oc(=O)cc(C)c3c2)c1` was 1.4 µg/mL (≈ 3.98 µM). `Cc1ccc(S(=O)(=O)N2CC(O)CC2C(=O)OCC(=O)Nc2ccc([N+](=O)[O-])cc2C(F)(F)F)cc1C` (stereo not given) registered a kinetic solubility of 76.5 µg/mL (≈ 140 µM).

Regarding `O=C(NNC(=O)c1ccccc1-n1cccc1)c1cncc(Br)c1`, the solubility (kinetic) was above 57.8 µg/mL. Molecule `Cl.O[C@@H]1CCCC[C@H]1N1CCC(c2ccccc2)CC1` gave a kinetic solubility above 44.4 µg/mL. The value for `Cc1ccc(C(=O)Nc2ccccc2C(=O)NCc2ccco2)cc1` was 4.6 µg/mL (≈ 13.8 µM); that for `CCN(Cc1ccncc1)C(=O)c1ccco1` was 29.4 µg/mL (≈ 128 µM). Turning to `COCCOC(=O)c1[nH]c2c(c1C)C(=O)CC(c1ccc(OC)cc1)C2` (stereo not given), the solubility (kinetic) was 1.6 µg/mL (≈ 4.48 µM). In the case of `COC(=O)CC1C(=O)NCCN1C(=O)c1c(F)cccc1F` (stereo not given) it was above 46.8 µg/mL; in that of `O=C(c1[nH]ncc1[N+](=O)[O-])N1CCOCC1`, above 33.9 µg/mL; in that of `CC(=O)N1CCN(c2ccc(S(=O)(=O)N3CCOCC3)cc2[N+](=O)[O-])CC1`, above 59.8 µg/mL. The molecule `COc1ccc(N=Cc2c(O)n(C)c(=O)n(C)c2=O)cc1` yielded a kinetic solubility of 11.1 µg/mL (≈ 38.4 µM). Turning to `O=[N+]([O-])c1ccc(NC2CCCC2)c2ccncc12`, the kinetic solubility worked out at 3 µg/mL (≈ 11.7 µM). The value for `COC(=O)C1CCN(C(=O)c2ccc3nccnc3c2)CC1` was above 44.9 µg/mL; that for `CC(=O)Nc1ccc(S(=O)(=O)N(C)CC(=O)NC2CCCCCCC2)cc1` was above 59.3 µg/mL. `CN(Cc1ccccc1)c1cc(Cl)nc(N)n1` returned a kinetic solubility of 21.5 µg/mL (≈ 86.4 µM).

`NS(=O)(=O)c1ccc(N2CCN(S(=O)(=O)Cc3ccccc3)CC2)nc1` registered a solubility (kinetic) of 4.1 µg/mL (≈ 10.3 µM). The value for `Cn1c(-c2ccccc2)nc2cnccc21` was above 31.4 µg/mL; that for `O=C(CC(=O)Nc1ccccc1)Nc1ccccc1` was 8.4 µg/mL (≈ 33 µM); that for `S=C(Nc1ccccc1)Nc1ccc(Br)cc1` was 5.6 µg/mL (≈ 18.2 µM). In the case of `CN(Cc1ccccc1)C(=O)COC(=O)c1cc2ccccc2oc1=O` it was above 52.7 µg/mL.

For the molecule `O=C(Nc1sc2c(c1C(=O)O)CCCC2)c1ccc(F)cc1`, the kinetic solubility amounted to 41.2 µg/mL (≈ 129 µM). Molecule `O=C(c1ccc(F)cc1)C(Cc1ccccc1)N1CCCCC1` (stereo not given) displayed a solubility (kinetic) of 13.1 µg/mL (≈ 42.1 µM).

Turning to `Cc1ccc(C)c(OCCC(=O)OCC(=O)NCc2ccc(F)cc2)c1`, the kinetic solubility worked out at 3.7 µg/mL (≈ 10.3 µM). Molecule `Cl.O=c1cn[nH]c2ccccc12` returned a kinetic solubility above 27.4 µg/mL. In turn, `COc1ccccc1N1CCN(C(=O)CCc2ccccc2)CC1` had a kinetic solubility above 48.7 µg/mL. The value for `CCOc1ccc(C(=O)CCC(=O)Nc2ccc(C)cn2)cc1` was 5.6 µg/mL (≈ 17.9 µM); that for `Cc1ccc(C(=O)N/C(=C\c2ccco2)C(=O)N2CCCCC2)cc1` was above 50.8 µg/mL; that for `Fc1ccccc1-c1nc(NC2CCCC2)c2ccccc2n1` was 11.1 µg/mL (≈ 36.1 µM).
